Several values for one entry are separate records, joined by “and”; a condition that tells them apart may be missing. Identical values can stand only once.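 Exposure lasted 48 hours, with cells grown in 96-well plates and compounds tested at five concentrations. Here, GI50 denotes the concentration required for 50% inhibition of growth. TGI denotes the concentration required for complete inhibition of growth.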

Eight molecules from PubChem BioAssay (NCI) can be followed below.

Assay in all cases: DTP human tumour cell line panel, 48 h
Assay [1] has as its system CAKI-1 renal.
Assay [2] deals with HT29 colon.
Assay [3] has as its system NCI-H522 lung.
In assay [4] the test system is PC-3 prostate.
The subject of assay [5] is SF-539 CNS.
The subject of assay [6] is SK-MEL-5 melanoma.
The test system of assay [7] is SNB-75 CNS.
The test system of assay [8] is SW-620 colon.
Assay [9] concerns TK-10 renal.
Assay [10] concerns UACC-62 melanoma.

As for `NCCSC(c1ccccc1)(c1ccccc1)c1ccccc1`, the GI50 was 3.51 µM in assay [1]; 1.95 µM in assay [2]; 0.369 µM in [3]; 1.36 µM in [4]; 1.36 µM in [5]; 1.01 µM in [6]. The GI50 was 1.73 µM in assay [7] and 0.558 µM in assay [8]. For the same molecule, the TGI in [1] is 16.1 µM; in assay [2] it was 4.23 µM; in [3] it was 1.7 µM; in assay [4], 11.5 µM; in assay [5], 3.21 µM; in assay [6], 2.25 µM. For the same molecule, the TGI in [7] came out at 5.31 µM; in assay [8], 2.48 µM.
Regarding `COc1cc2nc3cc([N+](=O)[O-])ccc3c(NCCNCC(C)O)c2cc1OC` (configuration not stated), the GI50 in [1] is 2.5 µM; in [2] it was 0.317 µM; in [3], 0.224 µM; in assay [4] it was 0.512 µM; in [5] it was 0.693 µM; in assay [7] it was 0.675 µM. The GI50 in assay [8] was 0.431 µM; in assay [9], 1.72 µM. For the same molecule, the concentration for total growth inhibition (TGI) is 10.9 µM in assay [1]; 1.28 µM in [2]; 1.06 µM in assay [3]; 2.46 µM in assay [4]; 2.47 µM in assay [5]; 2.07 µM in [7]. Also, the concentration for total growth inhibition (TGI) was found to be 3.09 µM in assay [8] and 5.71 µM in assay [9].
In the case of `CC1Cc2ccccc2N1C(=O)Cc1nc(N2CCOCC2)cc(=O)[nH]1` (configuration not stated), the GI50 was 10.5 µM and 28 µM in [1]; 8.25 µM and 34.5 µM in assay [2]; 25.6 µM and 39.7 µM in [3]; 2.47 µM and 5.2 µM in [4]; 8.79 µM and 22.4 µM in assay [5]; 13.4 µM and 34.5 µM in assay [6]. Moreover, the GI50 was 0.188 µM and 1.16 µM in assay [7]; 27.2 µM and 72.5 µM in assay [8]; 14.5 µM and 32.1 µM in assay [9]; 0.856 µM and 1.73 µM in assay [10]. Also, the TGI in assay [1] was greater than 100 µM; in [2], greater than 100 µM; in [3], greater than 100 µM; in [4] it was greater than 100 µM; in assay [5], greater than 100 µM; in assay [6] it was 34.1 µM and > 100 µM. Besides, the TGI in assay [7] is > 100 µM and 23.3 µM; in assay [8], greater than 100 µM; in assay [9] it was greater than 100 µM; in assay [10], greater than 100 µM.
In the case of `Cc1ccc(OCCOCCOCCOCCOCCOc2ccc(C)n(O)c2=S)c(=S)n1O`, the concentration for 50% growth inhibition (GI50) is 0.0453 µM in assay [1]; 0.0585 µM in assay [2]; 0.0386 µM in assay [3]; 0.345 µM in [4]; 0.0606 µM in [5]; 0.0497 µM in [6]. In addition, the GI50 in assay [7] is 0.456 µM; in assay [8], 0.0544 µM; in assay [9], 0.0826 µM; in assay [10] it was 0.0815 µM. For the same molecule, the TGI in assay [1] is greater than 100 µM; in [2], greater than 100 µM; in assay [3], greater than 100 µM; in [4], greater than 100 µM; in assay [5], 15.1 µM; in assay [6] it was 2.89 µM. For the same molecule, the TGI in [7] was 18.1 µM; in assay [8], greater than 100 µM; in assay [9] it was greater than 100 µM; in assay [10] it was 12.5 µM.
Regarding `Cc1[nH]nc2ncc(C(=O)N3CCC[C@H]3c3ccc(Cl)cc3)cc12`, the GI50 is greater than 100 µM in assay [1]; greater than 100 µM in [2]; greater than 100 µM in [3]; 45.6 µM in assay [4]; 44.4 µM in [5]; 31 µM in assay [6]. The GI50 in assay [7] is 84.4 µM; in [8], 76 µM; in [9], 94.2 µM; in assay [10], 44.1 µM. Moreover, the TGI in [1], in [2], in assay [3], in [4], in assay [5] and in assay [6] was greater than 100 µM each time. For the same molecule, the total growth inhibition concentration (TGI) in assay [7], in assay [8], in assay [9] and in [10] was greater than 100 µM in each case.
As to `CN1CCN(CCCN2c3ccccc3Sc3ccc(Cl)cc32)CC1`, the TGI is 9.02 µM and 74.2 µM in assay [1]; 56.8 µM in assay [3]; 10.4 µM and 80.7 µM in [4]; 14.6 µM and 87.9 µM in assay [5]; 62 µM in assay [6]; 12 µM and 62.5 µM in assay [8]. In assay [9], the TGI is 14.1 µM and 89 µM. For the same molecule, the GI50 in assay [3] was 42 µM; in [4], 3.39 µM; in assay [5] it was 7.49 µM and 51.6 µM; in [6], 48.5 µM; in [8], 5.72 µM and 41.8 µM; in assay [9], 7.18 µM and 51.8 µM.
With `NC(N)=N/N=C/c1c(-c2cccnc2)nc2sc(Cl)cn12`, the GI50 in assay [1] is 20.5 µM; in [3], 30.6 µM; in assay [4], 15.2 µM; in assay [5] it was 13.4 µM; in [6], 15.2 µM; in assay [8], 6.13 µM. In addition, the GI50 is 15.4 µM in assay [9] and 14.1 µM in assay [10]. Moreover, the TGI is 43.4 µM in assay [1]; greater than 100 µM in assay [3]; 28.5 µM in [4]; 26.3 µM in assay [5]; 28.6 µM in assay [6]; 20.7 µM in [8]. Besides, the concentration for total growth inhibition (TGI) in assay [9] is 29.3 µM; in assay [10], 27.1 µM.
As to `COc1ccc(-c2[nH]nc(N)c2-c2cc(OC)c(OC)c(OC)c2)cc1`, the 50% growth inhibitory concentration (GI50) in [1] was 0.0506 µM; in assay [2], 0.0343 µM; in assay [3] it was less than 0.0133 µM; in [4], 0.0367 µM; in [5], 0.0246 µM; in assay [6] it was 0.0381 µM. Further, the concentration for 50% growth inhibition (GI50) in assay [8] was 0.0387 µM; in [10] it was 0.0672 µM. The total growth inhibition concentration (TGI) in assay [1] was 47.3 µM; in assay [2], 18.2 µM; in assay [3], 0.62 µM; in assay [4], greater than 100 µM; in [5], 0.0665 µM; in assay [6], 0.725 µM. Besides, the TGI in assay [8] and in assay [10] was greater than 100 µM throughout.

Broadly, the GI50 is the concentration giving 50% growth inhibition. One may read the TGI as the concentration giving total growth inhibition. Low values mean more potent growth arrest, high ones less potent growth arrest.
